Tests used:
GCN2 kinase = GCN2 kinase (Homo sapiens (Human), UniProt Q9P2K8); test: Biochemical assay for GCN2 (TR-FRET kinase activity assay); settings: 1 mM ATP, 3-hour incubation
How it was run: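 TR-FRET assay with 2 nM GCN2, 130 nM GFP-eIF2α substrate, 0.2 mg/mL E. coli tRNA and 1 mM ATP; compounds (0.5% DMSO) reacted 3 h. Stopped with 20 mM EDTA plus 2 nM Tb-anti-peIF2α (pSer52), 60 min RT; 520/490 ratio converted to % inhibition, IC50 from four-parameter fit.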

PERK kinase = PERK kinase (Homo sapiens (Human), UniProt Q9NZJ5); test: Biochemical assay for PERK (coupled pyruvate kinase/lactate dehydrogenase assay); settings: 1 mM ATP, rate from 2-3 h time frame
How it was run: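 Coupled pyruvate kinase/lactate dehydrogenase readout of ATP hydrolysis via NADH oxidation (A340), 10 nM PERK, 0.25 mg/mL myelin basic protein, 1 mM ATP, pH 7.5 Tris/MgCl2 buffer, 1% DMSO. Absorbance followed 6 h at 30° C; rate from the 2-3 h window, normalised to no-compound and known-inhibitor controls, IC50 fitted.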

[1] = system: ATF4 in H929 multiple myeloma cells; test: H929 ATF4 ELISA assay (stimulation of cellular ATF4); type: cell-based; settings: 4 h, no thapsigargin
Experimental: H929 multiple myeloma cells (catalog #CRL-9068) were obtained from the American Type Culture Collection (ATTC, Manassas, VA). Briefly, cells were grown in RPMI-1640 medium supplemented with 20% heat-inactivated fetal bovine serum (catalog #A3840002, ThermoFisher Scientific, Waltham, MA), 1% Penicillin/Streptomycin/L-Glutamine (catalog #10378016, ThermoFisher Scientific, Waltham, MA), and 0.05 mM 2-mercaptoethanol (catalog #21985-023, ThermoFisher Scientific, Waltham, MA) at 37° C., 5% CO2, and 95% humidity. Cells were expanded until reaching one million five hundred thousand cells per mL at which time they were subcultured or harvested for assay use. One million five hundred thousand cells per well in 1 mL complete growth medium were dispensed into 12-well plates and incubated overnight. A serial dilution of test compound was added, and cells were incubated at 37° C., 5% CO2, and 95% for four hours. Cells were lysed then ATF4 levels were measured using an ELISA assay (Proteintech, Rosemont, IL). Absorbance is measured at 450 nm and 544 nM using a Synergy2 or equivalent reader (Biotek, Winooski VT). Data were analyzed using PRISM software (Graphpad, San Diego, CA) to calculate fold stimulation of cellular ATF4 relative to vehicle treated control.

[2] = system: ATF4 in CCRF-CEM leukemia cells (PERK); test: CCRF-CEM TG ATF4 ELISA, phenotypic assay for cellular inhibition of PERK preactivated by thapsigargin; type: cell-based; settings: Homo sapiens; Thapsigargin (1 μM) stimulated CCRF-CEM cells
CCRF-CEM leukemia cells = test: CCRF-CEM ASNase cell proliferation assay, phenotypic assay for cellular inhibition of GCN2; type: cell-based; settings: Homo sapiens; ASNase treated CCRF-CEM cells, 1 mU/mL ASNase, 72 h
How it was run: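 Cells were seeded at ten thousand per well in RPMI-1640 with 10% heat-inactivated FBS and treated in triplicate with serially diluted compound plus 1 mU/mL ASNase for 72 h at 37 °C, 5% CO2. Resazurin was then added for 6 h, with fluorescence read at ex 540/em 600 nm to derive IC50 values.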

[3] = system: phospho-GCN2 (Thr899) in HCT116 colorectal cancer cells; test: HCT116 amino acid starved (-AA) phospho-GCN2 assay (Western blot); type: cell-based; settings: Homo sapiens, HCT-116, 4 h, read-out: HCT116-AA pGCN2 Western Blot
How it was run: (§1)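 HCT116 cells switched to amino-acid-free EBSS (10% dialyzed FBS, 5.5 mM glucose, vitamins) with serial compound dilutions for 4 h at 37° C. Lysates Western blotted for phospho-GCN2 (Thr899), total GCN2, ATF4 and beta-actin; IC50 values derived from quantified bands.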

[4] = system: ATF4 in HCT116 colorectal cancer cells; test: HCT116 amino acid starved (-AA) ATF4 assay (Western blot); type: cell-based; settings: Homo sapiens, HCT-116, 4 h
How it was run: as §1

PERK kinase, sequence (Q9NZJ5 other isoform, or with tags, fused parts or gaps): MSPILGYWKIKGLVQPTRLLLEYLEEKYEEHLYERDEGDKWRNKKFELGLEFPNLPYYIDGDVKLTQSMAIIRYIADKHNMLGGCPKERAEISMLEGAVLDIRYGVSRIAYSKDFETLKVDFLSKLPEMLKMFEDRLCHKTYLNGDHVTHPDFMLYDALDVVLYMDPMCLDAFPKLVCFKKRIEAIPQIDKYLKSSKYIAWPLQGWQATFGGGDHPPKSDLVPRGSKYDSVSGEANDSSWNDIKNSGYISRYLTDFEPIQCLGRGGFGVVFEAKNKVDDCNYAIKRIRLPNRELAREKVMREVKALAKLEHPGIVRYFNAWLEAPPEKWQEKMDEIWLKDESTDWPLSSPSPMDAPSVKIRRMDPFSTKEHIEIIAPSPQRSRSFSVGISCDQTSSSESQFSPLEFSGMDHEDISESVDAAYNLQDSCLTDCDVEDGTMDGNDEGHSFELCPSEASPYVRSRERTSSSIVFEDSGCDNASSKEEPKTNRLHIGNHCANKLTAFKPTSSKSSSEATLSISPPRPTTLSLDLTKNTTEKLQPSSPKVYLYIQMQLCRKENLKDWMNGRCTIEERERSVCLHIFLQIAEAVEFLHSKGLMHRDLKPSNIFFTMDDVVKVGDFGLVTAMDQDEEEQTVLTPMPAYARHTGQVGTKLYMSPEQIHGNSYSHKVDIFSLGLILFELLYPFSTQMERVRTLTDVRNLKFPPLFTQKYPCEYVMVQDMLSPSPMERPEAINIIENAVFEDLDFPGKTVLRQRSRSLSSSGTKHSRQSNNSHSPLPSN
GCN2 kinase, sequence (Q9P2K8 whole entry): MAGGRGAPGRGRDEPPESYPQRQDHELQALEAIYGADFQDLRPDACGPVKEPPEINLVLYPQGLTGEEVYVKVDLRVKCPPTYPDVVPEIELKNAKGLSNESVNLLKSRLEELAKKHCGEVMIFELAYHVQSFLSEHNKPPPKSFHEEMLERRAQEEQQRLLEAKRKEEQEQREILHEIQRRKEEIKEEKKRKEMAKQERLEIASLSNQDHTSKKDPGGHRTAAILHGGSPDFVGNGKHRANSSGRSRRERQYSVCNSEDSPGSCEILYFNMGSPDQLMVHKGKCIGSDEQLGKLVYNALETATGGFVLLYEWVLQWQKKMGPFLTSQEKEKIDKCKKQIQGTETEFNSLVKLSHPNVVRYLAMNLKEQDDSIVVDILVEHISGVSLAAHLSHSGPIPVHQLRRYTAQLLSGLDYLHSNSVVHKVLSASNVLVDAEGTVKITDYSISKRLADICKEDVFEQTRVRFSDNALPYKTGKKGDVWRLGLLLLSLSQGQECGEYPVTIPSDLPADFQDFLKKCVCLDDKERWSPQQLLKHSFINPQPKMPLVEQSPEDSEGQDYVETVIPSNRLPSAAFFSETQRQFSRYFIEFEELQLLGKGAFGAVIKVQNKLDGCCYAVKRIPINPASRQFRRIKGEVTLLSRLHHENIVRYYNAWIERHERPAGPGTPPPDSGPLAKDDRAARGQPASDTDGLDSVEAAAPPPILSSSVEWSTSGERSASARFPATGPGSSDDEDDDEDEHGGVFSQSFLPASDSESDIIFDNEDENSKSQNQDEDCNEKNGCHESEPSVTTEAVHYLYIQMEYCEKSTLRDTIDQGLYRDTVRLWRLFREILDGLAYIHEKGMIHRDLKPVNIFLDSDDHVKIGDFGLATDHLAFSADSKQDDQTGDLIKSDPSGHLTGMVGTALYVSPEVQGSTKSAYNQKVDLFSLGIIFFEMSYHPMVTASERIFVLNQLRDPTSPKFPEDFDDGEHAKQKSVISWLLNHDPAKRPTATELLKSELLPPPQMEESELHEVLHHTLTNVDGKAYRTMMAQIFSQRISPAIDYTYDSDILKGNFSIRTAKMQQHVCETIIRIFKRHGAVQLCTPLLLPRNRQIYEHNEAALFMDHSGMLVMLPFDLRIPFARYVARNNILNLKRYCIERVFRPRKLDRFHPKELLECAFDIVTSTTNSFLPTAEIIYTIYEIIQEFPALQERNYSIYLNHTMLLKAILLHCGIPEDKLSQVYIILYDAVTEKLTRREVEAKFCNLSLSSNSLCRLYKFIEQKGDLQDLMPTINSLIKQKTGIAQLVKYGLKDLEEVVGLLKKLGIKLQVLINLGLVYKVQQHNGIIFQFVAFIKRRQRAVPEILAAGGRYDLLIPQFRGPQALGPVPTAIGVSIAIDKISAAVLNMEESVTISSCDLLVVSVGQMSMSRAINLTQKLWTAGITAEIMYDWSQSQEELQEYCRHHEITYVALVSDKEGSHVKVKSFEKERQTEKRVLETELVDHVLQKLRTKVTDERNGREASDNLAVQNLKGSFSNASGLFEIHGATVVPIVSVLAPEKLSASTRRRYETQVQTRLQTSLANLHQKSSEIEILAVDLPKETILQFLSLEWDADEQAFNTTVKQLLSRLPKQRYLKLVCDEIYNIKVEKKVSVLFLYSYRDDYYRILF

SMILES | IC50 (GCN2 kinase) | IC50 (PERK kinase) | H929 NS ATF4 ELISA (fold stimulation of ATF4 relative to vehicle) [1] | IC50 [2] | IC50 (CCRF-CEM leukemia cells) | IC50 [3] | IC50 [4]
CNc1ncc2cc(-c3cccc(NS(=O)(=O)c4cc(Cl)cnc4OC)c3C(F)(F)F)ccc2n1 [Example 79] | 100 to 500 nM | 100 to 500 nM | +++ (“+++” refers to an ATF4 stim greater than 10 fold and less than or equal to 20 fold) | – | – | – | –
CNc1ncc2cc(-c3cccc(NS(=O)(=O)c4cc(Cl)cc(CO)c4OC)c3F)c(NC)nc2n1 [Example 179] | ≤ 100 nM | ≤ 100 nM | +++ (“+++” refers to an ATF4 stim greater than 10 fold and less than or equal to 20 fold) | 100 to 500 nM | ≤ 100 nM | – | –
CNc1nc2nc(N)ncc2cc1-c1cccc(NS(=O)(=O)c2cc(Cl)cnc2OC)c1F [Example 109, N-(3-(2-amino-7-(methylamino)pyrido[2,3-d]pyrimidin-6-yl)-2-fluorophenyl)-5-chloro-2-methoxypyridine-3-sulfonamide] | ≤ 100 nM | 100 to 500 nM | +++ (“+++” refers to an ATF4 stim greater than 10 fold and less than or equal to 20 fold) | 500 to 1000 nM | ≤ 100 nM | ≤ 100 nM | ≤ 100 nM
CNc1cc2nc(C)c(-c3cccc(NS(=O)(=O)c4cc(Cl)cnc4OC)c3F)cc2cn1 [Example 31] | ≤ 100 nM | ≤ 100 nM | ++ (“++” refers to an ATF4 stim greater than 5 fold and less than or equal to 10 fold) | 1000 to 10000 nM | ≤ 100 nM | ≤ 100 nM | ≤ 100 nM
CNc1cc2nc(C)c(-c3cc(F)cc(NS(=O)(=O)c4cc(Cl)cc(CO)c4Cl)c3)cc2cn1 [Example 25] | ≤ 100 nM | ≤ 100 nM | ++ (“++” refers to an ATF4 stim greater than 5 fold and less than or equal to 10 fold) | 1000 to 10000 nM | ≤ 100 nM | ≤ 100 nM | ≤ 100 nM
CNc1cc2nc(N)c(-c3cccc(NS(=O)(=O)c4cc(Cl)cnc4OC)c3F)cc2cn1 [Example 128] | ≤ 100 nM | ≤ 100 nM | +++ (“+++” refers to an ATF4 stim greater than 10 fold and less than or equal to 20 fold) | ≤ 100 nM | ≤ 100 nM | ≤ 100 nM | ≤ 100 nM
CNc1ncc2cc(-c3cc(NS(=O)(=O)c4cc(Cl)cnc4OC)cc(F)c3F)c(NC)nc2n1 [Example 49] | ≤ 100 nM | 100 to 500 nM | + (“+” refers to an ATF4 stim less than or equal to 5-fold) | 1000 to 10000 nM | ≤ 100 nM | ≤ 100 nM | 100 to 500 nM
COc1ncc(Cl)cc1S(=O)(=O)Nc1cc(F)cc(-c2cnc3nc(N)ncc3c2)c1 [Example 86] | 1000 to 10000 nM | 1000 to 10000 nM | +++ (“+++” refers to an ATF4 stim greater than 10 fold and less than or equal to 20 fold) | – | – | – | –
CNc1ncc2cc(-c3cccc(NS(=O)(=O)c4cccc(CO)c4Cl)c3F)c(NC)nc2n1 [Example 151] | ≤ 100 nM | 100 to 500 nM | ++ (“++” refers to an ATF4 stim greater than 5 fold and less than or equal to 10 fold) | 100 to 500 nM | ≤ 100 nM | ≤ 100 nM | ≤ 100 nM
Cc1nc2cc(N)ncc2cc1-c1cccc(NS(=O)(=O)c2cc(Cl)cc(CO)c2Cl)c1F [Example 174] | – | – | +++ (“+++” refers to an ATF4 stim greater than 10 fold and less than or equal to 20 fold) | ≤ 100 nM | ≤ 100 nM | – | –
CNc1nc2nc(Nc3cnn(C)c3)ncc2cc1-c1cccc(NS(=O)(=O)c2cc(Cl)cnc2OC)c1F [Example 110] | ≤ 100 nM | ≤ 100 nM | ++ (“++” refers to an ATF4 stim greater than 5 fold and less than or equal to 10 fold) | 100 to 500 nM | ≤ 100 nM | ≤ 100 nM | ≤ 100 nM
CNc1ncc2cc(-c3cccc(NS(=O)(=O)c4cc(Cl)cc(CO)c4Cl)c3F)c(NC)nc2n1 [Example 175] | ≤ 100 nM | ≤ 100 nM | +++ (“+++” refers to an ATF4 stim greater than 10 fold and less than or equal to 20 fold) | 100 to 500 nM | ≤ 100 nM | – | –
